Columns and labels:
Type in all cases: cell-based, human
HOP-62 = experiment: NCI60 antiproliferative screen, lung HOP-62; conditions: HOP-62, 48 h, sulforhodamine B; read-out: Cytotoxicity (GI50) lung HOP-62
How it was run: (§1)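 After 48 h with compound at five log-spaced levels from 0.01 to 100 μM, cell growth is quantified by sulforhodamine B optical density. Fifty-percent growth inhibition concentrations are interpolated from control-normalised growth versus log10 dose.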

SF-539 = experiment: NCI60 antiproliferative screen, CNS SF-539; conditions: SF-539, 48 h, sulforhodamine B; read-out: Cytotoxicity (GI50) CNS SF-539
How it was run: as §1

SN12C = experiment: NCI60 antiproliferative screen, renal SN12C; conditions: 48 h, sulforhodamine B, read-out: Cytotoxicity (GI50) renal SN12C
How it was run: as §1

## COC(=O)CCC(=O)Oc1cc2c(=O)n(CCCN3CCOCC3)c3c(c2cc1OC)C(=O)c1cc2c(cc1-3)OCO2 [Compound 17, 2-Methoxy-6-(3-morpholinopropyl)-5,12-dioxo-6,12-dihydro-5H-[1,3]dioxolo[4′,5′:5,6]indeno[1,2-c]isoquinolin-3-yl Methyl Succinate]
HOP-62
  GI50: 16 nM
SF-539
  GI50: < 10 nM
SN12C
  GI50: < 10 nM
